Test results as given in patent US11214803B2, “Modulators of YAP1 expression” (Ionis Pharmaceuticals, Inc., priority 2019, dated 2022).
Strand notation (5' to 3'): a small letter for the sugar, then the base; units joined by * are phosphorothioate-linked, units joined directly phosphodiester-linked; [ ] holds rarer units or linkages, { } end groups; capitals alone tell only the bases. k = constrained ethyl (cEt); [5mC] = 5-methylcytosine; d = 2'-deoxy (DNA)

Tests used:
Type in all cases: cell-based
Yap1 mRNA [1] = assay: Dose-dependent inhibition of human Yap1 in A-431 cells (Example 8, 10,000 cells per well, RTS4814); details: A-431 cells; for IC50: Yap1 mRNA
Procedure, shortened: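 Yap1 mRNA, normalized to RIBOGREEN total RNA and expressed as % untreated control, was read with RTS4814 about 48 h after free-uptake oligonucleotide treatment of A-431 cells at 10,000 cells/well. IC50 derived by linear regression of log/linear data.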

Yap1 mRNA [2] = assay: Antisense inhibition of human Yap1 in A-431 cells by cEt gapmers, single dose (Example 4, RTS4814)
Procedure, shortened: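 Values are % UTC: Yap1 mRNA by quantitative RT-PCR, normalized to RIBOGREEN total RNA. Cells were exposed ~48 h to 2,000 nM oligonucleotide without transfection. Oligonucleotides were 16-nucleoside gapmers with three cEt nucleosides per wing, ten-deoxy gap, P=S linkages throughout.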

Yap1 mRNA [3] = assay: Antisense inhibition of human Yap1 in SNU-449 cells by modified oligonucleotides, single dose (Example 5, RTS36584); details: Yap1 mRNA, percent of untreated control; modified oligonucleotides targeting SEQ ID NO: 1 and 2; Table 47
Procedure, shortened: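 Values are Yap1 mRNA as percent of untreated control cells, measured by quantitative real-time RT-PCR using RTS36584 and normalised to total RNA by RIBOGREEN. Cells were SNU-449, dosed by free uptake at 2,000 nM for approximately 48 hours.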

[4] = Yap1 mRNA remaining as percent of untreated control, 3-10-3 cEt gapmers, A-431 cells, Table 37
[5] = Yap1 mRNA remaining as percent of untreated control, 3-10-3 cEt gapmers, A-431 cells, Table 36

Row | Substance | % UTC (Yap1 mRNA) (Yap1 mRNA [1]; 31.3 nM) [% UTC] | % UTC (Yap1 mRNA) (Yap1 mRNA [1]; 125.0 nM) [% UTC] | % UTC (Yap1 mRNA) (Yap1 mRNA [1]; 500.0 nM) [% UTC] | % UTC (Yap1 mRNA) (Yap1 mRNA [1]; 2000.00 nM) [% UTC] | IC50 (Yap1 mRNA [1]) [nM] | YAP1 (% UTC) (Yap1 mRNA [2]; [4]) | YAP1 (% UTC) (Yap1 mRNA [2]; [5]) | YAP1 (% UTC) (Yap1 mRNA [2]; Table 15, A-431 cells, 5,000 cells per well, free uptake, 2,000 nM, approximately 48 hours, RTS4814, normalized to RIBOGREEN, Yap1 mRNA relative to untreated control, * = targets amplicon region of primer probe set) | YAP1 (% UT) (Yap1 mRNA [3]) | YAP1 (% UTC) (Yap1 mRNA [2]; Table 16, A-431 cells, 5,000 cells per well, free uptake, 2,000 nM, approximately 48 hours, RTS4814, normalized to RIBOGREEN, Yap1 mRNA relative to untreated control cells) | YAP1 (% UTC) (Yap1 mRNA [2]; Table 14, A-431 cells, 5,000 cells per well, free uptake, 2,000 nM, approximately 48 hours, RTS4814, normalized to RIBOGREEN, Yap1 mRNA relative to untreated control, * = targets amplicon region of primer probe set)
1 | 1074679 (antisense kT*k[5mC]*kT*dT*dA*dA*dT*d[5mC]*dT*dG*dT*dG*dG*k[5mC]*kT*kA) [compound 1074679] | 52 | 16 | 6 | 5 | < 20 | 5 | – | – | – | – | –
2 | 1076022 (kT*kA*kA*dT*dT*dA*dG*dA*dT*dG*d[5mC]*dT*dG*kA*k[5mC]*kA; antisense) [compound 1076022] | 63 | 28 | 8 | 5 | 40 | – | 2 | – | – | – | –
3 | 1074775 (kG*kG*kT*dT*dT*dA*dT*dT*dG*dT*dA*dA*dA*kA*kG*k[5mC]; antisense) [compound 1074775] | 26 | 5 | 2 | 2 | < 20 | 3 | – | – | – | – | –
4 | 1076119 (kG*kT*kT*dA*dA*dA*dT*dA*dT*dG*dA*dA*dT*kT*kG*kG; antisense) [compound 1076119] | 82 | 35 | 12 | 6 | 100 | 7 | – | – | – | – | –
5 | 1075766 (kG*kG*kA*dG*dA*dA*d[5mC]*dA*d[5mC]*dA*dA*dG*dA*kG*kG*k[5mC]; antisense) [compound 1075766] | 56 | 21 | 11 | 8 | < 20 | – | 5 | – | – | – | –
6 | 1076481 (antisense k[5mC]*kT*kA*dA*dG*dT*dA*dA*dG*dG*dT*dT*dT*k[5mC]*k[5mC]*k[5mC]) [Compound 1076481] | – | – | – | – | – | – | – | 1 | ^mCksTksAksAdsGdsTdsAdsAdsGdsGds13 % UT | – | –
7 | 1075990 (k[5mC]*kG*kT*dT*dA*dT*dT*dA*dT*dG*d[5mC]*dA*dG*k[5mC]*kA*kA; antisense) [compound 1075990] | 28 | 6 | 3 | 3 | < 20 | – | 1 | – | – | – | –
8 | 1074486 (kA*kT*kT*d[5mC]*dA*d[5mC]*dT*dA*dA*dT*dA*dT*dG*kG*kT*k[5mC]; antisense) [compound 1074486] | 55 | 26 | 10 | 6 | < 20 | – | 4 | – | – | – | –
9 | 1076406 (antisense kA*kT*kT*dA*dT*dT*dT*dA*dA*dG*dA*d[5mC]*d[5mC]*kT*kG*kG) [compound 1076406] | 51 | 20 | 9 | 7 | < 20 | – | 4 | – | – | – | –
10 | 1074487 (kA*kG*kA*dT*dT*d[5mC]*dA*d[5mC]*dT*dA*dA*dT*dA*kT*kG*kG; antisense) [compound 1074487] | 73 | 28 | 11 | 6 | 100 | 7 | – | – | – | – | –
11 | 1076534 (kA*k[5mC]*kT*dA*dT*dA*dA*dA*dG*d[5mC]*dA*dA*dT*kG*k[5mC]*kG; antisense) [compound 1076534] | 88 | 48 | 20 | 10 | 200 | – | 4 | – | – | – | –
12 | 1076183 (k[5mC]*kT*kT*d[5mC]*dT*dA*dT*dA*dA*dT*dT*dA*dG*k[5mC]*k[5mC]*kA; antisense) [compound 1076183] | 65 | 22 | 9 | 6 | 40 | 7 | – | – | – | – | –
13 | 1076023 (kA*kT*kA*dA*dT*dT*dA*dG*dA*dT*dG*d[5mC]*dT*kG*kA*k[5mC]; antisense) [compound 1076023] | 60 | 18 | 5 | 3 | < 20 | 4 | – | – | – | – | –
14 | 1074678 (antisense kT*kA*kA*dT*d[5mC]*dT*dG*dT*dG*dG*d[5mC]*dT*dA*k[5mC]*kT*kG) [compound 1074678] | 73 | 37 | 16 | 10 | 100 | – | 7 | – | – | – | –
15 | 1074754 (k[5mC]*kT*kT*dT*dT*dA*d[5mC]*dA*dT*dT*dA*dG*dG*kA*kA*k[5mC]) [Compound 1074754] | – | – | – | – | – | – | – | – | 69 % UT | 11 | –
16 | 1075222 (kG*kT*kA*dT*dT*dT*dG*dG*dA*d[5mC]*dA*dA*d[5mC]*kT*k[5mC]*kT; antisense) [compound 1075222] | 75 | 30 | 8 | 5 | 100 | – | 3 | – | – | – | –
17 | 1074230 (antisense kA*kA*kG*dA*dA*dG*dA*d[5mC]*dT*dG*dT*d[5mC]*dG*kA*kA*kG) [compound 1074230] | 62 | 30 | 12 | 8 | 50 | – | 4 | – | – | – | –
18 | 1076439 (k[5mC]*kT*kT*dA*dT*dA*dT*dG*dG*dT*dT*dT*dT*kG*kT*kG) [compound 1076439] | 48 | 13 | 6 | 5 | < 20 | 4 | – | – | – | – | –
19 | 1074464 (kT*kT*kA*dG*dA*dG*dT*dA*dT*dG*dT*dG*dG*k[5mC]*kA*kA) [Compound 1074464] | – | – | – | – | – | – | – | – | 5 % UT | – | 2
20 | 1076471 (k[5mC]*kA*kT*dT*dA*dG*dA*d[5mC]*dT*dA*dG*dG*d[5mC]*kT*kT*kT; antisense) [compound 1076471] | 64 | 29 | 9 | 5 | 50 | 5 | – | – | – | – | –
21 | 1074454 (kT*kG*kT*dG*dA*d[5mC]*dT*dA*dA*dT*dG*dA*dT*kA*kG*k[5mC]; antisense) [compound 1074454] | 39 | 9 | 3 | 3 | < 20 | – | 1 | – | – | – | –
